The values that follow are results of earlier work, collected in patent publication US10986851B2, “Control of pathogenic bacteria in foods” (priority 2018, dated 2021).

The test system of data set [1] is Salmonella. As to conditions: postchill decontamination tank, ground poultry parts; 0.07 and 0.1% PAA evaluated.
For data set [2], the system named is Salmonella. The note with it: ground chicken containing 9.8% fat, refrigerated storage, 200 ppm.
Data set [3] has as its system Salmonella. The note with it: suspension in 0.1% peptone water.

With `CC(=O)OO` [PAA, peracetic acid], the “reduction of Salmonella” value in the data set on Salmonella [1] is listed as “effective for the reduction of Salmonella”.

As to `CCCCCCCCCCCC(=O)N[C@@H](CCCN=C(N)N)C(=O)OCC` [LAE, lauric arginate], the “effect on growth of Salmonella” value with Salmonella [2] is listed as “no inhibitory (P>0.05) effect”. Besides, the “inhibitory effect against Salmonella” value in the data set with Salmonella [3] is “strong inhibitory (P<0.05) effect”.
